Counter-ions that a name gives are not always drawn.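 Growth conditions: 96-well plates. Treatment: test compound, 48 hours, 5 concentrations. Analysis: linear interpolation between bracketing concentrations; unreached endpoints set to highest concentration. GI50: concentration for 50% inhibition of growth.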 Calls of active or inactive are those of the source. No stated cut-off is given here; in the data, active = GI50 up to about 1.1 µM and inactive = higher.
Columns and labels:
Assay in all cases: NCI-60 cell line screen, 48 h
[1] = system: SK-MEL-5
[2] = system: CCRF-CEM
[3] = system: NCI-H226
[4] = system: 786-0
[5] = system: COLO 205
[6] = system: SK-OV-3
[7] = system: OVCAR-3
[8] = system: U-251
[9] = system: NCI-H23
[10] = system: SF-295
[11] = system: NCI-H460
[12] = system: UACC-62
[13] = system: HCT-15
[14] = system: KM-20L2
[15] = system: IGROV-1
[16] = system: RXF 393
[17] = system: MCF7
[18] = system: MDA-MB-231
[19] = system: MDA-N
[20] = system: DU-145

SMILES | GI50 [1] | GI50 [2] | GI50 [3] | GI50 [4] | GI50 [5] | GI50 [6] | GI50 [7] | GI50 [8] | GI50 [9] | GI50 [10] | GI50 [11] | GI50 [12] | GI50 [13] [µM] | GI50 [14] | GI50 [15] | GI50 [16] | GI50 [17] | GI50 [18] | GI50 [19] | GI50 [20]
CCC(=O)OC1CCn2c1nc1c2C(=O)C(C)=C(NC(C)=O)C1=N (configuration not stated) | 1.29 µM (inactive) | 1 µM (active) | 1.93 µM (inactive) | 2.43 µM (inactive) | 1.72 µM (inactive) | 2.6 µM (inactive) | 0.453 µM (active) | 3.74 µM (inactive) | 1.77 µM (inactive) | 2.02 µM (inactive) | 1.47 µM (inactive) | 1.32 µM (inactive) | 2.25 | 1.73 µM (inactive) | 2.29 µM (inactive) |  |  |  |  | 
CCOC(OCC)c1ccc(/C=C/c2cc(OC)c(OC)c(OC)c2)cc1 | 15.2 µM (inactive) | 12.9 µM (inactive) | 30.4 µM (inactive) | 23.3 µM (inactive) | 18.7 µM (inactive) |  | 18 µM (inactive) | 16.3 µM (inactive) |  | 19.2 µM (inactive) | 19.1 µM (inactive) | 16.4 µM (inactive) | 15.9 | 18.7 µM (inactive) | 32.7 µM (inactive) | 19.8 µM (inactive) |  |  |  | 
Cn1cnc([N+](=O)[O-])c1Sc1nccn1-c1cccc2ccccc12 | 29.2 µM (inactive) | 19.5 µM (inactive) | 18.2 µM (inactive) | 48.1 µM (inactive) | 16.7 µM (inactive) | 31.8 µM (inactive) | 22.9 µM (inactive) | 26.2 µM (inactive) | 23 µM (inactive) | 48.4 µM (inactive) | 25.7 µM (inactive) | 16.4 µM (inactive) |  | 64.1 µM (inactive) | 26.7 µM (inactive) |  |  |  |  | 
CCN(CC)C(=S)SCC(=O)Nc1nc2c(s1)CCCC2 | 26 µM (inactive) | 49.4 µM (inactive) | > 100 µM (inactive) | 60.8 µM (inactive) | 95.1 µM (inactive) | > 100 µM (inactive) |  | 70.1 µM (inactive) | 74.1 µM (inactive) | 85.5 µM (inactive) | 68.9 µM (inactive) |  | 24.6 | > 100 µM (inactive) | > 100 µM (inactive) |  |  |  |  | 
CC1=CC(=O)N(n2c(Cc3ccccc3)n[nH]c2=O)C1=O | > 100 µM (inactive) | 23.3 µM (inactive) | > 100 µM (inactive) | > 100 µM (inactive) | > 100 µM (inactive) | > 100 µM (inactive) | > 100 µM (inactive) | > 100 µM (inactive) | > 100 µM (inactive) | > 100 µM (inactive) | > 100 µM (inactive) | > 100 µM (inactive) | > 100 |  | > 100 µM (inactive) | > 100 µM (inactive) | > 100 µM (inactive) | > 100 µM (inactive) | > 100 µM (inactive) | > 100 µM (inactive)
COC(=O)c1c2cccccc-2c(Cc2c3cccccc-3c(C(=O)OC)c2O)c1O | > 100 µM (inactive) | > 100 µM (inactive) | > 100 µM (inactive) | > 100 µM (inactive) | > 100 µM (inactive) | > 100 µM (inactive) | > 100 µM (inactive) | > 100 µM (inactive) | > 100 µM (inactive) | > 100 µM (inactive) | > 100 µM (inactive) | > 100 µM (inactive) | > 100 | > 100 µM (inactive) | > 100 µM (inactive) |  |  |  |  | 
Nc1ccc(-c2nc3cc(F)ccc3s2)cc1I | 21.7 µM (inactive) | > 100 µM (inactive) | 0.979 µM (active) | 16.2 µM (inactive) | 2.45 µM (inactive) | 14.4 µM (inactive) | 0.255 µM (active) | 13.9 µM (inactive) | 0.445 µM (active) | 14.2 µM (inactive) | 0.0276 µM (active) | 19.6 µM (inactive) | 1.34 |  | < 0.01 µM (active) | 15 µM (inactive) | < 0.0154 µM (active) | 13.6 µM (inactive) | > 100 µM (inactive) | 43.7 µM (inactive)
CC(C)NC(=O)OCc1c(COC(=O)NC(C)C)n(C)c2c1ccc1ccsc12 | 10.7 µM (inactive) | 2.25 µM (inactive) | 7.41 µM (inactive) | 6.46 µM (inactive) | 12.9 µM (inactive) | 16.2 µM (inactive) | 13.9 µM (inactive) | 8.45 µM (inactive) | 5.28 µM (inactive) | 7.62 µM (inactive) | 3.24 µM (inactive) | 6.9 µM (inactive) | 9.25 |  | 12.5 µM (inactive) | 6.98 µM (inactive) | 5.16 µM (inactive) | 16.7 µM (inactive) | 12.4 µM (inactive) | 4.76 µM (inactive)
Cc1cc(C)n(CC(Cn2nc(C)cc2C)=C(/C(Cl)=C(/Cl)Nc2ccc([N+](=O)[O-])cc2)[N+](=O)[O-])n1 | 2.29 µM (inactive) | 0.558 µM (active) | 10.2 µM (inactive) | 5.06 µM (inactive) | 2.67 µM (inactive) | 3.37 µM (inactive) | 4 µM (inactive) | 3.53 µM (inactive) | 2.43 µM (inactive) | 5.87 µM (inactive) | 3.33 µM (inactive) | 3.9 µM (inactive) | 4.73 |  | 2.62 µM (inactive) | 3.59 µM (inactive) | 3.71 µM (inactive) | 6.05 µM (inactive) | 3.74 µM (inactive) | 4.03 µM (inactive)
CC(=O)N1CC(=O)NC1=S | > 100 µM (inactive) | > 100 µM (inactive) | > 100 µM (inactive) | > 100 µM (inactive) | > 100 µM (inactive) | > 100 µM (inactive) | > 100 µM (inactive) | > 100 µM (inactive) | > 100 µM (inactive) | > 100 µM (inactive) |  | > 100 µM (inactive) | > 100 | > 100 µM (inactive) | > 100 µM (inactive) |  |  |  |  | 
O=[N+]([O-])c1ccc(/C=N/n2c(CO)nc3ccccc32)o1 | 2.14 µM (inactive) | 3.78 µM (inactive) | 15.1 µM (inactive) | 4.04 µM (inactive) | 3.1 µM (inactive) | 18.2 µM (inactive) | 2.22 µM (inactive) | 13.9 µM (inactive) | 5.42 µM (inactive) | 11.7 µM (inactive) | 3.29 µM (inactive) | 7.52 µM (inactive) | 2.84 |  | 0.993 µM (active) | 5.07 µM (inactive) | 2.96 µM (inactive) | 5.36 µM (inactive) | 3.33 µM (inactive) | 3.27 µM (inactive)
O=C1C(c2c(O)[nH]c3ccc(I)cc23)=Nc2ccccc21 | 2.57 µM (inactive) | 39.6 µM (inactive) | 2.55 µM (inactive) | 2.02 µM (inactive) | 11.6 µM (inactive) | 3.97 µM (inactive) | 5.71 µM (inactive) | 2.87 µM (inactive) | 5.61 µM (inactive) | 4.88 µM (inactive) | 10.4 µM (inactive) | 4.66 µM (inactive) | 7.21 |  | 0.0873 µM (active) | 3.24 µM (inactive) | 4.07 µM (inactive) | 2.65 µM (inactive) | 6.68 µM (inactive) | 4.74 µM (inactive)
OC(CNc1ccccn1)c1ccccc1 (configuration not stated) [PHENYRAMIDOL HYDROCHLORIDE] | > 100 µM (inactive) | > 100 µM (inactive) | > 100 µM (inactive) | > 100 µM (inactive) | > 100 µM (inactive) | > 100 µM (inactive) | > 100 µM (inactive) | 67.6 µM (inactive) | > 100 µM (inactive) | > 100 µM (inactive) | > 100 µM (inactive) | > 100 µM (inactive) | > 100 |  | > 100 µM (inactive) | > 100 µM (inactive) | > 100 µM (inactive) | > 100 µM (inactive) | > 100 µM (inactive) | > 100 µM (inactive)
Cc1cc2nc(O)c(C(C)C(=O)c3ccc(Cl)cc3)nc2cc1C (configuration not stated) | 38.1 µM (inactive) | 26.7 µM (inactive) | 35 µM (inactive) | 27.6 µM (inactive) | 22 µM (inactive) | > 100 µM (inactive) | 49.1 µM (inactive) | 36.2 µM (inactive) | 46.3 µM (inactive) | 31.7 µM (inactive) | 29.9 µM (inactive) | 46.9 µM (inactive) | 44.7 |  | 61.9 µM (inactive) | 41.3 µM (inactive) | 27.5 µM (inactive) | 36.7 µM (inactive) | 17.8 µM (inactive) | 53.1 µM (inactive)
NC(=O)c1ccccc1NC(=O)C(=O)C(C(=O)c1ccc(Cl)c(Cl)c1)C1OC(=O)c2ccccc21 (configuration not stated) |  | > 100 µM (inactive) | 14.9 µM (inactive) | 48.8 µM (inactive) | 41.8 µM (inactive) |  | 35.1 µM (inactive) | 30.8 µM (inactive) | 39.5 µM (inactive) |  |  | 30.8 µM (inactive) | 46.5 | 46.9 µM (inactive) | 60.1 µM (inactive) | 17 µM (inactive) |  |  |  | 
O=[N+]([O-])/C(C(Cl)=C(Cl)Cl)=C1/OCCS1 | 19.1 µM (inactive) | 15.9 µM (inactive) | 30.2 µM (inactive) | 23 µM (inactive) | 19.8 µM (inactive) | 48.6 µM (inactive) | 14.4 µM (inactive) | 36 µM (inactive) | 23.4 µM (inactive) | 33.9 µM (inactive) | 27 µM (inactive) | 25.5 µM (inactive) | 21.3 |  | 24.4 µM (inactive) | 19.3 µM (inactive) | 61.4 µM (inactive) | 17.5 µM (inactive) | 41.6 µM (inactive) | 42.2 µM (inactive)
OC(C/C=N/Nc1ccccc1)(C(F)(F)Cl)C(F)(F)Cl | > 10 µM (inactive) | > 10 µM (inactive) | 7.38 µM (inactive) | > 10 µM (inactive) | > 10 µM (inactive) | > 10 µM (inactive) | 4.84 µM (inactive) | > 10 µM (inactive) | 7.23 µM (inactive) | > 10 µM (inactive) | 5.53 µM (inactive) | > 10 µM (inactive) | 5.2 |  | 6.76 µM (inactive) | 6.75 µM (inactive) | > 10 µM (inactive) | 4 µM (inactive) | > 10 µM (inactive) | > 10 µM (inactive)

From ChEMBL document CHEMBL1201862, “PubChem BioAssay data set” (2004)
